Experimental data as given in the NIST ThermoML archive (doi:10.1016/j.tca.2015.01.022).

Assay: molar heat capacity at constant pressure
Settings: 101.33 kPa, Small (less than 1 g) adiabatic calorimetry

CCCCn1cc[n+](C)c1.F[B-](F)(F)F [1-butyl-3-methylimidazolium tetrafluoroborate]
Settings	molar heat capacity at constant pressure [J/K/mol]
147.63 K, Glass	206.5
149.17 K, Glass	208
149.9 K, Glass	209.1
150 K, Glass	208.9
150.24 K, Glass	209.1
151.78 K, Glass	210.6
152.52 K, Glass	211.6
152.86 K, Glass	211.8
154.39 K, Glass	213.3
155.13 K, Glass	214.2
155.48 K, Glass	214.4
157 K, Glass	216
157.74 K, Glass	216.9
158.09 K, Glass	217.2
159.61 K, Glass	218.7
160 K, Glass	219.3
160.35 K, Glass	219.7
160.71 K, Glass	219.9
162.21 K, Glass	221.6
162.96 K, Glass	222.4
163.32 K, Glass	222.8
164.8 K, Glass	224.5
165.57 K, Glass	225.6
165.93 K, Glass	225.7
167.4 K, Glass	227.5
168.19 K, Glass	228.6
168.53 K, Glass	228.9
169.99 K, Glass	230.8
170 K, Glass	230.8
170.79 K, Glass	232
171.13 K, Glass	232.5
172.58 K, Glass	234.6
173.37 K, Glass	236
173.73 K, Glass	236.7
175.18 K, Glass	239.5
175.96 K, Glass	241.5
176.31 K, Glass	242.4
177.73 K, Glass	247
178.51 K, Glass	249.7
178.86 K, Glass	251.9
180 K, Glass	260.4
180.22 K, Glass	262.1
180.97 K, Glass	268.6
181.29 K, Liquid	276.1
182.48 K, Liquid	309.1
183.17 K, Liquid	322.3
183.45 K, Liquid	329.7
184.59 K, Liquid	329.2
185.3 K, Liquid	329.5
185.6 K, Liquid	330
186.77 K, Liquid	331
187.48 K, Liquid	331.6
187.79 K, Liquid	331.2
188.95 K, Liquid	331.4
189.98 K, Liquid	331.5
190 K, Liquid	331.5
191.13 K, Liquid	331.6
192.17 K, Liquid	331.7
193.32 K, Liquid	331.9
194.37 K, Liquid	332
195.51 K, Liquid	332.2
196.58 K, Liquid	332.3
197.71 K, Liquid	332.5
198.79 K, Liquid	332.6
199.91 K, Liquid	332.8
200 K, Liquid	333
202.13 K, Liquid	333.2
204.34 K, Liquid	333.6
206.55 K, Liquid	334
208.77 K, Liquid	334.5
210 K, Liquid	335.1
210.99 K, Liquid	334.9
213.22 K, Liquid	335.4
215.44 K, Liquid	335.9
220 K, Liquid	337.5
230 K, Liquid	340.4
240 K, Liquid	343.6
250 K, Liquid	347.2
260 K, Liquid	350.9
263.82 K, Liquid	351.8
266.12 K, Liquid	352.8
268.4 K, Liquid	353.7
270 K, Liquid	354.9
270.68 K, Liquid	354.6
272.95 K, Liquid	355.5
275.23 K, Liquid	356.5
277.5 K, Liquid	357.6
279.78 K, Liquid	358.5
280 K, Liquid	359
282.05 K, Liquid	359.5
284.33 K, Liquid	360.3
286.6 K, Liquid	361.3
288.87 K, Liquid	362.4
290 K, Liquid	363.2
291.14 K, Liquid	363.3
293.42 K, Liquid	364.3
295.69 K, Liquid	365.2
297.95 K, Liquid	366.4
298.15 K, Liquid	366.7
300 K, Liquid	367.6
300.22 K, Liquid	367.4
302.49 K, Liquid	368.5
304.75 K, Liquid	369.6
307.02 K, Liquid	370.7
309.28 K, Liquid	371.7
310 K, Liquid	372.3
311.54 K, Liquid	372.7
313.8 K, Liquid	373.8
316.06 K, Liquid	375
318.32 K, Liquid	376.1
320 K, Liquid	377
320.58 K, Liquid	377
322.83 K, Liquid	378
325.09 K, Liquid	379.3
327.34 K, Liquid	380.1
329.59 K, Liquid	381.1
330 K, Liquid	381.7
331.84 K, Liquid	382.2
334.09 K, Liquid	383.3
336.34 K, Liquid	384.3
338.58 K, Liquid	385.6
340 K, Liquid	386.4
340.83 K, Liquid	386.7
343.08 K, Liquid	387.6
345.32 K, Liquid	388.7
347.57 K, Liquid	389.7
349.81 K, Liquid	390.7
350 K, Liquid	391.1
352.05 K, Liquid	391.7
354.29 K, Liquid	392.8
356.53 K, Liquid	393.9
358.76 K, Liquid	394.9
360 K, Liquid	395.9
361 K, Liquid	395.8
363.23 K, Liquid	397.1
365.46 K, Liquid	398
367.7 K, Liquid	399
370 K, Liquid	400.6
